Experiments:
EGFR = target: T1, EGFR (Homo sapiens, UniProt P00533); experiment: Kinase inhibition, Mobility Shift Assay/IMAP, EGFR; type: biochemical
T1 construct: purchased Carna 08-115
Text: (§1) This assay directly monitored the ability of compounds to inhibit kinase phosphorylation by measuring non-phosphorylated and phosphorylated substrates in kinase reactions by using Mobility Shift Assays/IMAP™ analysis.
(§2) Read the conversion ratio data on CaliperEZ Reader II. Convert conversion rates into inhibition ratio data.
(§3) “Min” indicates the readout of the control well without the addition of enzymes; and “Max” indicates the readout of the control well with the addition of DMSO Fit IC50 values with XL Fit excel add-in version […].
(§4) X indicates the log value of compound concentration, and Y indicates the inhibition ratio (% inhibition).

TIE2 = target: T2, TIE2 (Homo sapiens, UniProt Q02763); experiment: Kinase inhibition, Mobility Shift Assay/IMAP, TIE2; type: biochemical
T2 construct: purchased BPS 40270
Text: as §1, §2, §3, §4

VEGFR2 = VEGFR2 (Homo sapiens, UniProt P35968); experiment: Kinase inhibition, Mobility Shift Assay/IMAP, VEGFR2; type: biochemical; design: purchased Carna 08-191
Text: as §1, §2, §3, §4

melanin = experiment: Binding capacity of compounds to melanin; type: in vitro ADME, cuttlefish (Sepia officinalis); details: cuttlefish (Sepia officinalis), melanin suspension (1 mg/mL); 1 mg/mL melanin in PBS pH 7.4, 2 μM compound, 2 h at 37° C.; read-out: Fu % (percentage of free drug)
Text: Pigmented eye tissues contain melanin in intracellular melanosomes. Drugs bind to melanin to varying degrees, ranging from non-binding to extensive binding. Therefore, melanin binding is an important feature that affects drug delivery and biodistribution in the eye. The binding capacity of the compound to the melanin must be considered in the development of ophthalmic drugs.
Melanin was derived from the melanin of cuttlefish (Sepia officinalis) and was commercially available from Sigma Aldrich (St Louis, MO).
First, prepare 1 mg/mL melanin suspension with PBS (pH 7.4). As a washing step for the matrix, centrifuge the suspended particles for 5 min at 3000 rpm. Resuspend the resulting particles in a fresh PBS buffer, heat to 37° C. over continuous shaking and incubate it for 1 h. Accurately pipette 2 μL of the test stock solution (0.1 mM) into 98 μL of melanin suspension (1 mg/mL) to achieve a final incubation concentration of 2 μM. Similarly, accurately pipette 2 μL of the stock solution (0.1 mM) to 98 μL of PBS buffer (containing 0.1% BSA) as a blank control sample. Incubate the samples in a shaker (80-90 rpm) for 2 h at 37° C. Then, centrifuge the samples at room temperature. Pipette 50 μL of the supernatant and add 50 μL of precipitant (containing an internal standard). After protein precipitation of all the above samples, centrifuge the samples to collect the supernatants, dilute the supernatants with water (if necessary) and inject them for analysis. At the same time, measure the positive controls, including the high-binding compounds Sunitinib and chloroquine and the low-binding compound celecoxib. Establish an LC-MS/MS method for determining compound concentrations, and calibrate the peak area ratio of analyte/internal standard (Analyte/AIS) in the measured sample by the dilution factor to take it as an alternative concentration for the sample for data processing. The binding rate (Fb) of a compound in melanin was calculated as: […]
Ctest was the concentration of the compound in the melanin-incubated sample or the peak area ratio of the test compound to the internal standard. Ccontrol was the concentration of the compound in the blank control sample or the peak area ratio of the test compound to the internal standard. […]

T2 sequence (Q02763 23-1124): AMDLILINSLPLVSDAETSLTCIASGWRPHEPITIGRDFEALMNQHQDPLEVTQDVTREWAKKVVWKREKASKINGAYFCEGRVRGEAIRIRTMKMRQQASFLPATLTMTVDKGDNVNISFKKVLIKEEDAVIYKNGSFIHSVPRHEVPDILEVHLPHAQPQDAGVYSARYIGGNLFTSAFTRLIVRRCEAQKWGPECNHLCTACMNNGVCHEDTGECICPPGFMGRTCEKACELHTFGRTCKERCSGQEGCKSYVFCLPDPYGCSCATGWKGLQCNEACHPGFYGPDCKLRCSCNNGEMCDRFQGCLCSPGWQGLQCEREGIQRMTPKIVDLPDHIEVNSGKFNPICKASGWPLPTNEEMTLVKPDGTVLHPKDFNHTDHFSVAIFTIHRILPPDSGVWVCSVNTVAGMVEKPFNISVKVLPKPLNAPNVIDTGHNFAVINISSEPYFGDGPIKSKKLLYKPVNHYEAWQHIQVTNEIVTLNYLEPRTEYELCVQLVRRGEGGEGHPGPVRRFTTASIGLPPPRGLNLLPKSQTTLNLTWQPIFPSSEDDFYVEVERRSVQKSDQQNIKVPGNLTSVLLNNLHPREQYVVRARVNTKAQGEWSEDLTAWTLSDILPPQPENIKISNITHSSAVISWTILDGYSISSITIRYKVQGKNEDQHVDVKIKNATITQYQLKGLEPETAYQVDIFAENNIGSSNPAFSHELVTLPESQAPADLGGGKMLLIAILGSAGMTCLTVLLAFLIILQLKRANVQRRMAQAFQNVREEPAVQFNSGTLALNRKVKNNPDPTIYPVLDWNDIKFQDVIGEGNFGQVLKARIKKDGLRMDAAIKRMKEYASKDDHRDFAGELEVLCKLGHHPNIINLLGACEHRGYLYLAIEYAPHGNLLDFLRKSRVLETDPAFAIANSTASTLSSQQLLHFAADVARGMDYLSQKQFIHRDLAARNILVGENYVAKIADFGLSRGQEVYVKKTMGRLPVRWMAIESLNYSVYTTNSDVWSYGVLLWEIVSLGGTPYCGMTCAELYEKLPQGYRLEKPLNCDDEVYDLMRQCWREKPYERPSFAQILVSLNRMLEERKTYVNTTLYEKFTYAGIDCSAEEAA
VEGFR2, sequence (P35968 790-1356 limits assumed): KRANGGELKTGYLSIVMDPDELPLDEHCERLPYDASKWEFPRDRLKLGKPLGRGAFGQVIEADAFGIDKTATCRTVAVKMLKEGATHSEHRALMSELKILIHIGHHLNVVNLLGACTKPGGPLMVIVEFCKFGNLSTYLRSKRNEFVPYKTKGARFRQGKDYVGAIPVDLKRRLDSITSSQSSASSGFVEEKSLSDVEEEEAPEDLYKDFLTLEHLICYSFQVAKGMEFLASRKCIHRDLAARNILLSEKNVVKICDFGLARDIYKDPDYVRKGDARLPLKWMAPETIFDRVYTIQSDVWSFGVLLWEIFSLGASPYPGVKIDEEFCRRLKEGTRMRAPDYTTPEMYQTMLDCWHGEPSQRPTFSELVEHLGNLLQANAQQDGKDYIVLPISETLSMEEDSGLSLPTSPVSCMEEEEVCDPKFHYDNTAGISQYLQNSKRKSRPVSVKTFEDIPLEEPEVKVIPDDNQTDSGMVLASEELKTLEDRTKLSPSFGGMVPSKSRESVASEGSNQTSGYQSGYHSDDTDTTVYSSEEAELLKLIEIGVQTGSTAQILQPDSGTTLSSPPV
T1 sequence (P00533 669-1210 limits assumed): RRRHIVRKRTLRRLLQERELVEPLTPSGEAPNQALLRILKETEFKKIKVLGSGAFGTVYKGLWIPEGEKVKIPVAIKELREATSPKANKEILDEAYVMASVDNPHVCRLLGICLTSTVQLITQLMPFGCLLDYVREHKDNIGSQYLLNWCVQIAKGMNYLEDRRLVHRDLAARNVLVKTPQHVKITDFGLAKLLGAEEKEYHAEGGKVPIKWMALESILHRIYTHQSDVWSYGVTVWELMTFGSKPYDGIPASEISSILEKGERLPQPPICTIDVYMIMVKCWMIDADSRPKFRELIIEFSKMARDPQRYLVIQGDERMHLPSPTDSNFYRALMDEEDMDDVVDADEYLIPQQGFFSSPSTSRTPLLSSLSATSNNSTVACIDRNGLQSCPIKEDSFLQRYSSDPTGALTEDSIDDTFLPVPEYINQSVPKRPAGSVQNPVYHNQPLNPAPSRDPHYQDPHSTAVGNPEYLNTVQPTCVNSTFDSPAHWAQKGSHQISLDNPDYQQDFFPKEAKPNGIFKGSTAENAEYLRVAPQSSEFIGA

| SMILES | IC50 (EGFR) [µM] | IC50 (TIE2) [µM] | IC50 (VEGFR2) [µM] | fraction unbound at 2 h, 2 μM (melanin) |
| --- | --- | --- | --- | --- |
| COc1ccc(COc2nsc(NC(=O)NCCCCN3CCCC3)c2C(N)=O)cn1 [Compound T033] | 54.9 | 1.46 | 0.0519 | – |
| NC(=O)c1c(OCc2ccc3c(c2)CCO3)nsc1NC(=O)NCCCCN1CCCC1 [Compound T044, 3-((2,3-dihydrobenzofuran-5-yl)methoxy)-5-(3-(4-(pyrrolidin-1-yl)butyl)ureido)isothiazole-4-carboxamide] | 10 | 1.64 | 0.128 | – |
| NC(=O)c1c(OCc2c(F)cc(Br)cc2F)nsc1Nc1cncc(OCCN2CCCC2)c1 [Compound T045, 3-((4-bromo-2,6-difluorobenzyl)oxy)-5-((5-(2-(pyrrolidin-1-yl)ethoxy)pyridin-3-yl)amino)isothiazole-4-carboxamide] | – | 0.23 | 0.0221 | – |
| NC(=O)c1c(OCc2cc(Cl)c3cncn3c2)nsc1NC(=O)NCCCCN1CCCC1 [Compound T051, 3-((8-chloroimidazo[1,5-a]pyridin-6-yl)methoxy)-5-(3-(4-(pyrrolidin-1-yl)butyl)ureido)isothiazole-4-carboxamide] | – | 3.21 | – | – |
| NC(=O)c1c(OCc2cccc(-n3cccn3)c2)nsc1NC(=O)NCCCCN1CCCC1 [Compound T068, 3-((3-(1H-pyrazol-1-yl)benzyl)oxy)-5-(3-(4-(pyrrolidin-1-yl)butyl)ureido)isothiazole-4-carboxamide] | 4.41 | 1.61 | 0.171 | – |
| CN1CCN(CCCNC(=O)Nc2snc(OCc3cccc(C(=O)C4CC4)c3)c2C(N)=O)CC1 [Compound T086, 3-((3-(cyclopropanecarbonyl)benzyl)oxy)-5-(3-(3-(4-methylpiperazin-1-yl)propyl)ureido)isothiazole-4-carboxamide] | 6.83 | 0.895 | – | – |
| NC(=O)c1c(OCc2cc(C(=O)NC3CC3)ccc2F)nsc1NC(=O)NCCCN1CC[C@H](O)C1 [Compound T105, 3-[[5-(cyclopropylcarbamoyl)-2-fluoro-phenyl]methoxy]-5-[3-[(3S)-3-hydroxypyrrolidin-1-yl]propylcarbamoylamino]isothiazole-4-carboxamide] | 11.9 | – | 0.0016 | 0.0316 |
| NC(=O)c1c(OCc2cc(C(=O)NC3CC3)ccc2F)nsc1NC(=O)NCCCN1CC[C@@H](O)C1 [Compound T106, 3-[[5-(cyclopropylcarbamoyl)-2-fluoro-phenyl]methoxy]-5-[3-[(3R)-3-hydroxypyrrolidin-1-yl]propylcarbamoylamino]isothiazole-4-carboxamide] | 20.1 | – | 0.00164 | 0.0172 |
| COc1ccc(F)c(COc2nsc(NC(=O)NCCC3CCN(C)CC3)c2C(N)=O)c1F [Compound T109, 3-[(2,6-difluoro-3-methoxy-phenyl)methoxy]-5-[2-(1-methyl-4-piperidyl)ethylcarbamoylamino]isothiazole-4-carboxamide] | 7.45 | – | 0.0138 | 0.0435 |
| COc1cc(OC)c(F)c(COc2nsc(NC(=O)NCCCN3CCN(C)CC3)c2C(N)=O)c1F [Compound T117, 3-[(2,6-difluoro-3,5-dimethoxy-phenyl)methoxy]-5-[3-(4-methylpiperazin-1-yl)propylcarbamoylamino]isothiazole-4-carboxamide] | > 60 | – | 0.00254 | 0.0207 |
| COc1ccc(F)c(COc2nsc(NC(=O)NCCCN3CC[C@@H](F)C3)c2C(N)=O)c1F [Compound T121, 3-[(2,6-difluoro-3-methoxy-phenyl)methoxy]-5-[3-[(3R)-3-fluoropyrrolidin-1-yl]propylcarbamoylamino]isothiazole-4-carboxamide] | 17.2 | 0.23 | 0.04 | – |
| COc1cc(OC)c(F)c(COc2nsc(NC(=O)NCCCCN3CC[C@H](O)C3)c2C(N)=O)c1F [Compound T136, 3-[(2,6-difluoro-3,5-dimethoxy-phenyl)methoxy]-5-[4-[(3S)-3-hydroxypyrrolidin-1-yl]butylcarbamoylamino]isothiazole-4-carboxamide] | > 60 | – | 0.0018 | 0.0285 |
| COc1cc(OC)c(F)c(COc2nsc(NC(=O)NCCCCN3CCCC3)c2C(N)=O)c1F [Compound T137, 3-[(2,6-difluoro-3,5-dimethoxy-phenyl)methoxy]-5-(4-pyrrolidin-1-ylbutylcarbamoylamino)isothiazole-4-carboxamide] | > 60 | – | 0.0021 | 0.0446 |
| COc1cc(OC)c(F)c(COc2nsc(NC(=O)NCCCC3CCCN3C)c2C(N)=O)c1F (stereo not drawn) [Compound T138, 3-[(2,6-difluoro-3,5-dimethoxy-phenyl)methoxy]-5-[3-(1-methylpyrrolidin-2-yl)propylcarbamoylamino]isothiazole-4-carboxamide] | > 60 | – | 0.0026 | 0.0398 |
| CN1CCC(CCNC(=O)Nc2snc(OCc3cc(C(=O)NC4CC4)ccc3Cl)c2C(N)=O)CC1 [Compound T139, 3-[[2-chloro-5-(cyclopropylcarbamoyl)phenyl]methoxy]-5-[2-(1-methyl-4-piperidyl)ethylcarbamoylamino]isothiazole-4-carboxamide] | 10.1 | 0.366 | 0.00041 | – |
| CN1CCN(CCCNC(=O)Nc2snc(OCc3cc(C(=O)NC4CC4)ccc3Cl)c2C(N)=O)CC1 [Compound T140, 3-[[2-chloro-5-(cyclopropylcarbamoyl)phenyl]methoxy]-5-[3-(4-methylpiperazin-1-yl)propylcarbamoylamino]isothiazole-4-carboxamide] | 15.5 | – | 0.00044 | 0.0726 |
| COc1ccc(Cl)c(COc2nsc(NC(=O)NCCCCN3CCCC3)c2C(N)=O)c1F [Compound T146] | 26.1 | 0.739 | 0.0105 | – |
| O=C(NCCCN1CC[C@H](F)C1)Nc1snc(OCc2cc(C(=O)NC3CC3)ccc2F)c1C(=O)O [Compound T155, 3-[[5-(cyclopropylcarbamoyl)-2-fluoro-phenyl]methoxy]-5-[3-[(3S)-3-fluoropyrrolidin-1-yl]propylcarbamoylamino]isothiazole-4-carboxylic acid] | > 60 | > 60 | – | – |
| NC(=O)c1c(OCc2cc(C(=O)NC3CC3)ccc2F)nsc1NC(=O)NCCCN1CCN(C2CC2)CC1 [Compound T158, 3-[[5-(cyclopropylcarbamoyl)-2-fluoro-phenyl]methoxy]-5-[3-(4-cyclopropylpiperazin-1-yl)propylcarbamoylamino]isothiazole-4-carboxamide] | 9.84 | 5.38 | 0.00105 | – |
| NC(=O)c1c(OCc2ccc(F)c(C(=O)NC3CC3)c2)nsc1NC(=O)NCCCN1CCNCC1 [Compound T160, 3-[[3-(cyclopropylcarbamoyl)-4-fluoro-phenyl]methoxy]-5-(3-piperazin-1-ylpropylcarbamoylamino)isothiazole-4-carboxamide] | – | 4.27 | 0.00141 | – |
| N#CCCNC(=O)Nc1snc(OCc2cc(C(=O)NC3CC3)ccc2F)c1C(N)=O [Compound T162, 5-(2-cyanoethylcarbamoylamino)-3-[[5-(cyclopropylcarbamoyl)-2-fluoro-phenyl]methoxy]isothiazole-4-carboxamide] | – | 7.36 | 0.00305 | – |
| NC(=O)c1c(OCc2cc(C(=O)O)ccc2F)nsc1NC(=O)NCCCN1CC[C@H](F)C1 [Compound T171, 3-[[4-carbamyl-5-[3-[(3S)-3-fluoropyrrolidin-1-yl]propylcarbamylamino]isothiazol-3-yl]oxymethyl]-4-fluoro-benzoic acid] | 29.1 | 5.85 | – | – |
| NC(=O)c1c(OCc2cc(C(=O)NC3CC3)ccc2F)nsc1NC(=O)NCCC(=O)O [Compound T172, 3-[[4-carbamoyl-3-[[5-(cyclopropylcarbamoyl)-2-fluoro-phenyl]methoxy]isothiazol-5-yl]carbamoylamino]propanoic acid] | – | 3.26 | 0.0026 | – |

— patent US20260217698A1 (BEYANG THERAPEUTICS CO., LTD., priority 2022, published 2026)
